According to patent US12485121B2, “Antiviral agents for the treatment and prevention of HIV infection” (Pharmasyntez, Joint Stock Company, priority 2020, dated 2025):

Tested on: HIV-1 subtype A strain 12RU 69831
Assay: Inhibition of HIV-1 reproduction / protection of infected MT-4 cells (living cell concentration, p24 production)
Assay type: cell-based
Details: Human immunodeficiency virus 1, MT4, MT-4 cells infected with HIV-1 at a constant virus dose of 300 CCID50; read-out: Activity against HIV-1 12RU 69831 strain (subtype A)
Procedure: Evaluation of HIV reproduction inhibition/protection of human cells by anti-HIV products of the present invention was conducted by measuring change in living cells concentration in experimental wells with MT-4 cells infected with HIV-1, as well as by the production of viral protein p24 with adding different concentrations of compounds according to the present invention. Antiviral activity of products against HIV-1 subtype A strain 12RU 69831 was determined, when the cell culture was infected with a constant dose of virus, corresponding to 300 CCID50.

| SMILES | IC50 [µM] |
| --- | --- |
| Cc1cc(C#N)cc(C)c1Oc1nc(Nc2ccc(C#N)cc2)nc2c1CCNCC2 [BB0274021, 4-((2-((4-Cyanophenyl)amino)-6,7,8,9-tetrahydro-5H-pyrimido[4,5-d]azepine-4-yl)oxy)-3,5-dimethylbenzonitrile] | 0.0102 |
| Cc1cc(C#N)cc(C)c1Oc1nc(Nc2ccc(C#N)cc2)nc2c1CCN(C1CCNCC1)CC2 [BB0274028, 4-((2-((4-Cyanophenyl)amino)-7-(piperidine-4-yl)-6,7,8,9-tetrahydro-5H-pyrimido[4,5-d]azepine-4-yl)oxy)-3,5-dimethylbenzonitrile] | 16.2 |
| Cc1cc(C#N)cc(C)c1Oc1nc(Nc2ccc(C#N)cc2)nc2c1CN(C(=O)C(Cc1cnn(C(=O)OC(C)(C)C)c1)NC(=O)OC(C)(C)C)CC2 (stereo not shown) [BB0274122, Tert-butyl 4-(2-((tert-butoxycarbonyl)amino)-3-(4-(4-cyano-2,6-dimethylphenoxy)-2-((4-cyanophenyl)amino)-7,8-dihydropyrido[4,3-d]pyrimidine-6(5H)-yl)-3-oxopropyl)-1H-pyrazole-1-carboxylate] | 18.9 |
| Cc1cc(C2OCCCO2)cc(C)c1Oc1nc(Nc2ccc(C#N)cc2)nc2c1CCN(C(=O)OC(C)(C)C)CC2 [BB0273892] | 1220 |
| Cc1cc(/C=C/C#N)cc(C)c1Oc1nc(Nc2ccc(C#N)cc2)nc2c1CCN(C(=O)OC(C)(C)C)CC2 [BB0274009, Tert-butyl 2-((4-cyanophenyl)amino)-4-(4-(2-cyanovinyl)-2,6-dimethylphenoxy)-8,9-dihydro-5H-pyrimido[4,5-d]azepine-7(6H)-carboxylate] | 291 |
| C#CCOc1ccccc1CN1CCc2nc(Nc3ccc(C#N)cc3)nc(Oc3c(C)cc(C#N)cc3C)c2C1 [BB0274141, 4-((2-((4-Cyanophenyl)amino)-6-(2-(prop-2-in-1-yloxy)benzyl)-5,6,7,8-tetrahydropyrido[4,3-d]pyrimidine-4-yl)oxy)-3,5-dimethylbenzonitrile] | 174 |
| Cc1cc(C#N)cc(C)c1Oc1nc(Nc2ccc(C#N)cc2)nc2c1CN(C(=O)C(N)Cc1cn[nH]c1)CC2 (stereo not shown) [BB0274121, 4-((6-(2-Amino-3-(1H-pyrazole-4-yl)propanoyl)-2-((4-cyanophenyl)amino)-5,6,7,8-tetrahydropyrido[4,3-d]pyrimidine-4-yl)oxy)-3,5-dimethylbenzonitrile] | 18.7 |
| Cc1cc(C#N)cc(C)c1Oc1nc(Nc2ccc(C#N)cc2)nc2c1CCN(CCN1CCOCC1)CC2 [BB0274118, 4-((2-((4-Cyanophenyl)amino)-7-(2-morpholineethyl)-6,7,8,9-tetrahydro-5H-pyrimido[4,5-d]azepine-4-yl)oxy)-3,5-dimethylbenzonitrile] | 0.324 |
| COCC(C)N1CCc2nc(Nc3ccc(C#N)cc3)nc(Oc3c(C)cc(C#N)cc3C)c2CC1 (stereo not shown) [BB0274080] | 0.414 |
| Cc1cc(C#N)cc(C)c1Oc1nc(Nc2ccc(C#N)cc2)nc2c1CN(C(=O)[C@@H](N)CCCCN)CC2 [BB0274131, (S)-4-((2-((4-Cyanophenyl)amino)-6-(2,6-diaminohexanoyl)-5,6,7,8-tetrahydropyrido[4,3-d]pyrimidine-4-yl)oxy)-3,5-dimethylbenzonitrile] | 0.667 |
| Cc1cc(C#N)cc(C)c1Oc1nc(Nc2ccc(C#N)cc2)nc2c1CCN(C(=O)c1cccnc1)CC2 [BB0274012, 4-((2-((4-Cyanophenyl)amino)-7-nicotinoyl-6,7,8,9-tetrahydro-5H-pyrimido[4,5-d]azepine-4-yl)oxy)-3,5-dimethylbenzonitrile] | 5.81 |
| Cc1cc(C#N)cc(C)c1Oc1nc(Nc2ccc(C#N)cc2)nc2c1CN(Cc1cccnc1)CC2 [BB0274138, 4-((2-((4-Cyanophenyl)amino)-6-(pyridine-3-ylmethyl)-5,6,7,8-tetrahydropyrido[4,3-d]pyrimidine-4-yl)oxy)-3,5-dimethylbenzonitrile] | 0.00676 |
| Cc1cc(C#N)cc(C)c1Oc1nc(Nc2ccc(C#N)cc2)nc2c1CN(Cc1ccccc1O)CC2 [BB0274140, 4-((2-((4-Cyanophenyl)amino)-6-(2-hydroxybenzyl)-5,6,7,8-tetrahydropyrido[4,3-d]pyrimidine-4-yl)oxy)-3,5-dimethylbenzonitrile] | 27.8 |
